The test system of this experiment is Bmi-1. Put plainly: Sandwich ELISA Assay (Bmi-1 ELISA in HT-1080 cells). The experiment is classed as cell-based, human. In outline:
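HT-1080 cells (8000/well) were treated with compounds in 0.5% final DMSO for 40-48 h at 37°C and then lysed. Bmi-1 in lysates was measured by sandwich ELISA: overnight capture at 4°C on mouse monoclonal, rabbit anti-Bmi-1 detection, HRP anti-rabbit, TMB. OD450 was read with an OD570 reference against a recombinant GST-Bmi-1 standard curve (0-8000 pg/mL).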
(An ELISA detects its analyte on a solid surface through an enzyme-linked reagent.)
The IC50 is the concentration that gives 50% inhibition. In turn, `Cc1nc2ccc(Cl)cn2c1-c1csc(Nc2ccc(Cl)cc2Cl)n1` [Cpd 218, 4-(6-chloro-2-methylimidazo[1,2-a]pyridin-3-yl)-N-(2,4-dichlorophenyl)-1,3-thiazol-2-amine] gave an IC50 below 500 nM.
With `Cc1nc2ccc(Cl)cn2c1-c1csc(Nc2ccc3c(c2)OC(C)(C)O3)n1` [Cpd 219, 4-(6-chloro-2-methylimidazo[1,2-a]pyridin-3-yl)-N-(2,2-dimethyl-1,3-benzodioxol-5-yl)-1,3-thiazol-2-amine] the figure was below 500 nM.
With `Cc1nc2c(Cl)cc(Cl)cn2c1-c1csc(Nc2ccc3c(c2)OCO3)n1` [Cpd 220, N-(1,3-benzodioxol-5-yl)-4-(6,8-dichloro-2-methylimidazo[1,2-a]pyridin-3-yl)-1,3-thiazol-2-amine] the figure was below 500 nM.
The compound `Cc1nc2c(C)cccn2c1-c1csc(Nc2ccc(N(C)C)cc2)n1` [Cpd 221, N′-[4-(2,8-dimethylimidazo[1,2-a]pyridin-3-yl)-1,3-thiazol-2-yl]-N,N-dimethylbenzene-1,4-diamine] displayed an IC50 below 500 nM.
The figure for `COc1ccc(Nc2nc(-c3c(C)nc4c(C)cccn34)cs2)cc1` [Cpd 222, 4-(2,8-dimethylimidazo[1,2-a]pyridin-3-yl)-N-(4-methoxyphenyl)-1,3-thiazol-2-amine] is below 500 nM; for `Cc1ccc(Nc2nc(-c3c(C)nc4c(C)cccn34)cs2)cc1` [Cpd 223, 4-(2,8-dimethylimidazo[1,2-a]pyridin-3-yl)-N-(4-methylphenyl)-1,3-thiazol-2-amine] it is below 500 nM.
`Cc1nc2c(C)cccn2c1-c1csc(Nc2ccc(Cl)cc2)n1` [Cpd 224, N-(4-chlorophenyl)-4-(2,8-dimethylimidazo[1,2-a]pyridin-3-yl)-1,3-thiazol-2-amine] had an IC50 below 500 nM.
Consider `COc1cccc(Nc2nc(-c3c(C)nc4c(C)cccn34)cs2)c1` [Cpd 225, 4-(2,8-dimethylimidazo[1,2-a]pyridin-3-yl)-N-(3-methoxyphenyl)-1,3-thiazol-2-amine], for which the IC50 is below 500 nM.
With `Cc1nc2c(C)cccn2c1-c1csc(Nc2ccc3c(c2)OCO3)n1` [Cpd 226, N-(1,3-benzodioxol-5-yl)-4-(2,8-dimethylimidazo[1,2-a]pyridin-3-yl)-1,3-thiazol-2-amine] the figure was below 500 nM; with `Cc1nc2c(Br)cccn2c1-c1csc(Nc2ccc(N(C)C)cc2)n1` [Cpd 227, N′-[4-(8-bromo-2-methylimidazo[1,2-a]pyridin-3-yl)-1,3-thiazol-2-yl]-N,N-dimethylbenzene-1,4-diamine], below 500 nM; with `COc1ccc(Nc2nc(-c3c(C)nc4c(Br)cccn34)cs2)cc1` [Cpd 228, 4-(8-bromo-2-methylimidazo[1,2-a]pyridin-3-yl)-N-(4-methoxyphenyl)-1,3-thiazol-2-amine], below 500 nM.
With `Cc1ccc(Nc2nc(-c3c(C)nc4c(Br)cccn34)cs2)cc1` [Cpd 229, 4-(8-bromo-2-methylimidazo[1,2-a]pyridin-3-yl)-N-(4-methylphenyl)-1,3-thiazol-2-amine] the figure was below 500 nM.
The figure for `Cc1nc2c(Br)cccn2c1-c1csc(Nc2ccc(Cl)cc2)n1` [Cpd 230, 4-(8-bromo-2-methylimidazo[1,2-a]pyridin-3-yl)-N-(4-chlorophenyl)-1,3-thiazol-2-amine] is below 500 nM.
Take `Cc1nc2c(Br)cccn2c1-c1csc(Nc2ccccc2)n1` [Cpd 231, 4-(8-bromo-2-methylimidazo[1,2-a]pyridin-3-yl)-N-phenyl-1,3-thiazol-2-amine]: the IC50 was below 500 nM.
With `COc1cccc(Nc2nc(-c3c(C)nc4c(Br)cccn34)cs2)c1` [Cpd 232, 4-(8-bromo-2-methylimidazo[1,2-a]pyridin-3-yl)-N-(3-methoxyphenyl)-1,3-thiazol-2-amine] the figure was below 500 nM.
Consider `Cc1nc2c(Br)cccn2c1-c1csc(Nc2ccccc2Cl)n1` [Cpd 233, 4-(8-bromo-2-methylimidazo[1,2-a]pyridin-3-yl)-N-(2-chlorophenyl)-1,3-thiazol-2-amine], for which the IC50 was below 500 nM.
The figure for `COc1ccccc1Nc1nc(-c2c(C)nc3c(Br)cccn23)cs1` [Cpd 234, 4-(8-bromo-2-methylimidazo[1,2-a]pyridin-3-yl)-N-(2-methoxyphenyl)-1,3-thiazol-2-amine] is below 500 nM.
`Cc1nc2c(Br)cccn2c1-c1csc(Nc2ccc3c(c2)OCO3)n1` [Cpd 235, N-(1,3-benzodioxol-5-yl)-4-(8-bromo-2-methylimidazo[1,2-a]pyridin-3-yl)-1,3-thiazol-2-amine] came in with an IC50 below 500 nM.
With `COc1cccc(Nc2nc(-c3c(C)nc4ccc(F)cn34)cs2)c1` [Cpd 236, 4-(6-fluoro-2-methylimidazo[1,2-a]pyridin-3-yl)-N-(3-methoxyphenyl)-1,3-thiazol-2-amine] the figure was below 500 nM.
The figure for `Cc1ccc(Nc2nc(-c3c(C)nc4ccc(F)cn34)cs2)cc1` [Cpd 237, 4-(6-fluoro-2-methylimidazo[1,2-a]pyridin-3-yl)-N-(4-methylphenyl)-1,3-thiazol-2-amine] is below 500 nM; for `Cc1nc2ccc(F)cn2c1-c1csc(Nc2c(Br)cccc2Br)n1` [Cpd 239, N-(2,6-dibromophenyl)-4-(6-fluoro-2-methylimidazo[1,2-a]pyridin-3-yl)-1,3-thiazol-2-amine] it is below 500 nM; for `Cc1nc2cc(Cl)ccn2c1-c1csc(Nc2ccc(Cl)cc2)n1` [Cpd 240, 4-(7-chloro-2-methylimidazo[1,2-a]pyridin-3-yl)-N-(4-chlorophenyl)-1,3-thiazol-2-amine] it is below 500 nM.
With `COc1ccc(Nc2nc(-c3c(C)nc4cc(Cl)ccn34)cs2)cc1` [Cpd 241, 4-(7-chloro-2-methylimidazo[1,2-a]pyridin-3-yl)-N-(4-methoxyphenyl)-1,3-thiazol-2-amine] the figure was below 500 nM.
`Cc1nc2cc(Cl)ccn2c1-c1csc(Nc2ccc(N(C)C)cc2)n1` [Cpd 242, N′-[4-(7-chloro-2-methylimidazo[1,2-a]pyridin-3-yl)-1,3-thiazol-2-yl]-N,N-dimethylbenzene-1,4-diamine] had an IC50 below 500 nM.
The figure for `Cc1ccc(Nc2nc(-c3c(C)nc4cc(Cl)ccn34)cs2)cc1` [Cpd 243, 4-(7-chloro-2-methylimidazo[1,2-a]pyridin-3-yl)-N-(4-methylphenyl)-1,3-thiazol-2-amine] is below 500 nM.
`CC(=O)c1ccc(Nc2nc(-c3c(C)nc4cc(Cl)ccn34)cs2)cc1` [Cpd 244, 1-(4-{[4-(7-chloro-2-methylimidazo[1,2-a]pyridin-3-yl)-1,3-thiazol-2-yl]amino}phenyl)ethanone] gave an IC50 below 500 nM.
The figure for `COc1ccc(Nc2nccc(-c3cnc4ccccn34)n2)cc1` [Cpd 245, 4-(imidazo[1,2-a]pyridin-3-yl)-N-(4-methoxyphenyl)pyrimidin-2-amine] is below 500 nM; for `Clc1cccc(Nc2nccc(-c3cnc4ccccn34)n2)c1` [Cpd 246, N-(3-chlorophenyl)-4-(imidazo[1,2-a]pyridin-3-yl)pyrimidin-2-amine] it is below 500 nM; for `Clc1ccccc1Nc1nccc(-c2cnc3ccccn23)n1` [Cpd 247, N-(2-chlorophenyl)-4-(imidazo[1,2-a]pyridin-3-yl)pyrimidin-2-amine] it is 500 to 1000 nM.
The figure for `Fc1ccc(Nc2nccc(-c3cnc4ccccn34)n2)cc1` [Cpd 248, N-(4-fluorophenyl)-4-(imidazo[1,2-a]pyridin-3-yl)pyrimidin-2-amine] is below 500 nM.
The figure for `COc1cc(Br)c(Nc2nccc(-c3cnc4ccccn34)n2)c(Br)c1` [Cpd 249, N-(2,6-dibromo-4-methoxyphenyl)-4-(imidazo[1,2-a]pyridin-3-yl)pyrimidin-2-amine] is below 500 nM.
Regarding `CC(=O)c1ccc(Nc2nccc(-c3cnc4ccccn34)n2)cc1` [Cpd 250, 1-(4-{[4-(imidazo[1,2-a]pyridin-3-yl)pyrimidin-2-yl]amino}phenyl)ethanone], the IC50 is below 500 nM.
The figure for `c1ccn2c(-c3ccnc(Nc4ccc5c(c4)OCO5)n3)cnc2c1` [Cpd 251, N-(1,3-benzodioxol-5-yl)-4-(imidazo[1,2-a]pyridin-3-yl)pyrimidin-2-amine] is below 500 nM; for `CCOc1ccc(Nc2nccc(-c3cnc4ccccn34)n2)cc1` [Cpd 252, N-(4-ethoxyphenyl)-4-(imidazo[1,2-a]pyridin-3-yl)pyrimidin-2-amine] it is below 500 nM.
With `CCN(CC)c1ccc(Nc2nccc(-c3cnc4ccccn34)n2)cc1` [Cpd 253, N,N-diethyl-N′-[4-(imidazo[1,2-a]pyridin-3-yl)pyrimidin-2-yl]benzene-1,4-diamine] the figure was below 500 nM; with `CN(C)c1ccc(Nc2nccc(-c3cnc4ccccn34)n2)cc1` [Cpd 254, N′-[4-(imidazo[1,2-a]pyridin-3-yl)pyrimidin-2-yl]-N,N-dimethylbenzene-1,4-diamine], below 500 nM.
In turn, `Fc1cccc(Nc2nccc(-c3cnc4ccccn34)n2)c1` [Cpd 255, N-(3-fluorophenyl)-4-(imidazo[1,2-a]pyridin-3-yl)pyrimidin-2-amine] gave an IC50 below 500 nM.
With `Brc1cccc(Nc2nccc(-c3cnc4ccccn34)n2)c1` [Cpd 256, N-(3-bromophenyl)-4-(imidazo[1,2-a]pyridin-3-yl)pyrimidin-2-amine] the figure was below 500 nM; with `COc1cc(Br)c(Nc2nccc(-c3cnc4ncccn34)n2)c(Br)c1` [Cpd 257, N-(2,6-dibromo-4-methoxyphenyl)-4-(imidazo[1,2-a]pyrimidin-3-yl)pyrimidin-2-amine], below 500 nM.
Regarding `c1cnc2ncc(-c3ccnc(Nc4ccc5c(c4)OCO5)n3)n2c1` [Cpd 259, N-(1,3-benzodioxol-5-yl)-4-(imidazo[1,2-a]pyrimidin-3-yl)pyrimidin-2-amine], the IC50 is below 500 nM.
Turning to `COc1cccc(Nc2nccc(-c3cnc4ncccn34)n2)c1` [Cpd 260, 4-(imidazo[1,2-a]pyrimidin-3-yl)-N-(3-methoxyphenyl)pyrimidin-2-amine], the IC50 was below 500 nM.

Source of the values: patent publication US8680113B2, “BMI-1 protein expression modulators” (PTC Therapeutics, Inc., priority 2008, dated 2014).
